# pIC50: −log10 of the molar value.
# Biological target: Lanosterol 14-alpha demethylase (Candida albicans) (UniProt P10613)
# Test: In vitro inhibition of cytochrome P450 lanosterol C14 demethylase in Candida albicans CY1005
# Lanosterol 14-alpha demethylase (Candida albicans), sequence (P10613 whole entry, looked up): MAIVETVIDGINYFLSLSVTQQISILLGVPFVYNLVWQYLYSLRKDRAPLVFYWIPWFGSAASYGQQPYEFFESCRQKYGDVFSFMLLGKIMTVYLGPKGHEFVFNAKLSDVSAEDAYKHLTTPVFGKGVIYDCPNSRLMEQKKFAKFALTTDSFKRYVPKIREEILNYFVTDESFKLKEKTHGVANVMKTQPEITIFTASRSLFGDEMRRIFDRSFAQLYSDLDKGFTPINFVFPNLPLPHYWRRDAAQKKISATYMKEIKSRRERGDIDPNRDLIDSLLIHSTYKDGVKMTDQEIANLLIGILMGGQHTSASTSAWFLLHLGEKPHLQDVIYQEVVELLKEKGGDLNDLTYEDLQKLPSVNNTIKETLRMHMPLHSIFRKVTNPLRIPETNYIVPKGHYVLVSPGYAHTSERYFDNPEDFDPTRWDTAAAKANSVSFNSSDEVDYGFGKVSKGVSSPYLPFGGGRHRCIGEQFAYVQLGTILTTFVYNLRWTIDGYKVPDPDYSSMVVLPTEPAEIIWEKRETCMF
row,SMILES,pIC50
1,CCc1ccc(CC[C@@H]2CCC(C)(C)C(OCCO)[C@H]2Cn2cncn2)cc1 (some centres not stated),7.08
2,COC1[C@@H](Cn2cncn2)[C@H](COc2ccc(OC(F)(F)F)cc2)CCC1(C)C (some centres not stated),6.93
3,CO/N=C1\[C@@H](Cn2cncn2)[C@H](COc2ccc(OC(F)(F)F)cc2)CCC1(C)C,7.25
4,CC1(C)CC[C@@H](COc2ccc(OC(F)(F)F)cc2)[C@H](Cn2cncn2)C1OCCO (some centres not stated),7.65
5,CC1(C)CC[C@@H](COc2ccc(OC(F)(F)F)cc2)[C@H](Cn2cncn2)/C1=N\O,6.89
6,CCc1ccc(CC[C@@H]2CCC(C)(C)/C(=N/OC)[C@H]2Cn2cncn2)cc1,7.06
7,CCc1ccc(CC[C@@H]2CCC(C)(C)/C(=N/O)[C@H]2Cn2cncn2)cc1,7.13

# — BindingDB's records for doi:10.1016/s0960-894x(98)00316-3 (Nippon Roche Research Center, 1998)
